The values that follow come from patent US20230149355A1, “COMPOSITIONS AND METHODS FOR MODULATING TRP CHANNEL ACTIVITY” (priority 2020, published 2023).

Assay [1] concerns intestinal motility. In words: Zebrafish intestinal motility (PIV-Lab velocity analysis). The format is in vivo. The note with it: AhR inhibitor 10 μM or folic acid 10 μM for 2 hours.
Experimental: For EEC Trpa1 activation using the Optovin platform, zebrafish larvae were treated with 10 μM Optovin overnight. Following Optovin treatment, unanesthetized zebrafish were mounted in 1% LMA and imaged under a 780 upright Zeiss confocal microscope using 20× water objective lenses. For all the experiments, the mid-intestine region was imaged (FIG. 10D). The intestinal epithelium was selected as the region of interest (ROI) (FIG. 10A). Serial images were obtained at 1 s/frame. A 405 nm pulse of light was applied to the ROI at 1 pulse/10 s. For some experiments (FIG. 7D-F, FIG. 10B-G), the images were obtained at 10 s/frame.
The zebrafish intestinal motility is quantified through recorded image series of zebrafish intestine using the method similar as previously described (Ganz et al., 2018). Intestinal p velocity and v velocity were used to estimate intestinal motility in zebrafish as previously described using the PIV-Lab MATLAB app (Ganz et al., 2018). A positive value of the μ velocity indicates an anterograde intestinal movement and a negative value of the μ velocity indicates a retrograde intestinal movement. The time-course p velocity number is plotted as heatmaps. When calculating the mean velocity, only the mean velocity magnitude was calculated, which therefore doesn't account for the movement direction. The MTrackJ FIJI plugin was used to quantify the mean velocity magnitude (Meijering et al., 2012).
The test system of assay [2] is E. tarda. In words: Intestinal E. tarda mCherry accumulation in zebrafish treated with AhR inhibitors. Format: in vivo. The note with it: AhR inhibitor 1 μM or folic acid 10 μM, 3 dpf to 6 dpf. As for the experimental part:
For E. tarda colonization experiments, fertilized zebrafish eggs were collected, sorted and transferred into a cell culture flask containing 80 mL GZM at 0 dpf. At 3 dpf, dead embryos and 60 mL GZM were removed and replaced with 50 mL fresh GZM in each flask. To facilitate consistent commensal gut bacterial colonization, an additional 10 mL of filtered system water (5 μm filter, SLSV025LS, Millipore) were added to each flask. Overnight E. tarda mCherry culture was harvested, washed three times with GZM. 150 μL of GZM-washed E. tarda mCherry culture were inoculated into each flask. The E. tarda concentration is ˜10^6 CFU/ml. […] At 6 dpf, zebrafish larvae were subjected to fluorescence imaging analysis or CFU quantification. For fluorescence imaging analysis, zebrafish larvae were anesthetized with Tricaine ([…]), mounted in 3% methylcellulose and imaged with a Leica M205 FA upright fluorescence stereomicroscope equipped with a Leica DFC 365FX camera. For CFU quantification, digestive tracts were dissected and transferred into 1 mL sterile PBS which was then mechanically disassociated using a Tissue-Tearor (BioSpec Products, 985370). […] The mCherry+ colonies were quantified from each plate and E. tarda colony forming units (CFUs) per fish were calculated. […]

For assay [3], the system named is AhR signaling. As to conditions: 0.05 μM; cited from earlier work.
Assay [4] addresses T1, AhR (Homo sapiens, UniProt P35869).
T1 sequence (P35869 11-848): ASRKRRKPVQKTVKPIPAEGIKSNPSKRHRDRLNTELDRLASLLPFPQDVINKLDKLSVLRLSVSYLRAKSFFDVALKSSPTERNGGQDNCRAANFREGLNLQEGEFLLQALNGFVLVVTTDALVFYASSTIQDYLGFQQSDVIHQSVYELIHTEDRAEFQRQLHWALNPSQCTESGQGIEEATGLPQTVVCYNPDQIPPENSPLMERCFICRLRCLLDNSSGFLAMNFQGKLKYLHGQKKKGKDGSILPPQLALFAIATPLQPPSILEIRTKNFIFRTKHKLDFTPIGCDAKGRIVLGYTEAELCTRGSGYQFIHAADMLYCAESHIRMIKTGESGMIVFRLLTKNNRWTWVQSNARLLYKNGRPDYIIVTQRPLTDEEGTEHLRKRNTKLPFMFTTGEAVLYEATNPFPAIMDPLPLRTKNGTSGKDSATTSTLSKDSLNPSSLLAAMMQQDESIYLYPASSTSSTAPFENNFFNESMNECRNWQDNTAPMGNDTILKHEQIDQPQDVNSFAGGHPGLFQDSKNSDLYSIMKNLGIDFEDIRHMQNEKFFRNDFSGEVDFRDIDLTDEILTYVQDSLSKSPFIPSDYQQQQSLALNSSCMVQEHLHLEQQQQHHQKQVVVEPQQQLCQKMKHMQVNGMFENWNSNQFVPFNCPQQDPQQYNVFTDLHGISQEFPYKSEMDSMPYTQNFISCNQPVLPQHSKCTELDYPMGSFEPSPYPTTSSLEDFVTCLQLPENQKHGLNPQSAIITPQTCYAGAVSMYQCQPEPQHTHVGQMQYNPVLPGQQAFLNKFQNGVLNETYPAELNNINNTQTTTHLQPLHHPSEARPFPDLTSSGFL
The note with it: Kim et al., 2020; cited from earlier work.

As for `Nc1nc2ncc(CNc3ccc(C(=O)N[C@@H](CCC(=O)O)C(=O)O)cc3)nc2c(=O)[nH]1` [Folic acid], the “Effect on Optovin-UV induced intestinal motility change” value in assay [1] is given as “insufficient to block”. The “Effect on E. tarda intestinal accumulation” value in assay [2] is on record as “insufficient to block”. In addition, the “Inhibition of AhR signaling in early zebrafish embryos” value in assay [3] was “inhibits”. In addition, in assay [4], the “Concentration at which it acts as a competitive AhR antagonist (as low as)” value is 10 ng/mL.
